The values that follow come from ChEMBL document CHEMBL6096728, “Simultaneous Induction of Immunogenic Pyroptosis and PD-L1 Downregulation by One Single Photosensitizer for Synergistic Cancer Photoimmunotherapy” (J Med Chem, 2025).

The nature of test [1]: Phototoxicity against mouse 4T1 cells preincubated for 24 hrs followed by light irradiation of 20 mW.cm/2 at 400 to 700nm for 10 mins under hypoxia condition by CCK-8 method. The class given is functional, cell-based. Particulars: 4T1, light or radiation study.
Test [2] deals with MDA-MB-231. Briefly: Induction of cell death in human MDA-MB-231 cells assessed as increase in red fluorescence at 0.5 uM incubated for 24 hrs followed by light irradiation of 20 mW.cm/2 at 400 to 700nm for 10 mins by Calcein-AM/PI staining based analysis. In kind it is functional.
Test [3] has as its system MDA-MB-231. Briefly: Induction of cell death in human MDA-MB-231 cells assessed as decrease in green fluorescence at 0.5 uM incubated for 24 hrs followed by light irradiation of 20 mW.cm/2 at 400 to 700nm for 10 mins by Calcein-AM/PI staining based analysis. The class given is functional.
For test [4], the system named is 4T1. Description: Induction of cell death in mouse 4T1 cells assessed as decrease in green fluorescence at 0.5 uM incubated for 24 hrs followed by light irradiation of 20 mW.cm/2 at 400 to 700nm for 10 mins by Calcein-AM/PI staining based analysis. The class given is functional.
A short description of test [5]: Phototoxicity against human MDA-MB-231 cells preincubated for 24 hrs followed by light irradiation of 20 mW.cm/2 at 400 to 700nm for 10 mins under hypoxia condition by CCK-8 method. In kind it is functional, cell-based. Particulars: MDA-MB-231, light or radiation study.
The test system of test [6] is 4T1. Briefly: Induction of cell death in mouse 4T1 cells assessed as increase in red fluorescence at 0.5 uM incubated for 24 hrs followed by light irradiation of 20 mW.cm/2 at 400 to 700nm for 10 mins by Calcein-AM/PI staining based analysis. In kind it is functional.

The source made the active and inactive calls. No cut-off for these calls is given here. Where only a bound is given, the exact number is not on record here.

`CCN(CC)c1ccc2nc3c4ccccc4c(=O)cc-3oc2c1` [NILE RED]: the IC50 in test [1] and in test [5] was over 10 µM in each case. For the same compound, the result in the test on MDA-MB-231 [2], with MDA-MB-231 [3], in the test with 4T1 [4] and with 4T1 [6] was inactive.
